Results taken from the kinase profiling compilation of Christmann-Franck et al. (2016).

What was measured:
Test in all cases: radiometric filter-binding kinase assay, Kinase HotSpot
Conditions in all cases: compound 0.5 µM; ATP 10 µM
SRMS (human) = SRMS (human) (UniProt Q9H3Y6)
EPHA7 (human) = EPHA7 (human) (UniProt Q15375)
CAMK2D (human) = CAMK2D (human) (UniProt Q13557)
MAPK8 (human) = MAPK8 (human) (UniProt P45983)
HIPK2 (human) = HIPK2 (human) (UniProt Q9H2X6)
EPHB1 (human) = EPHB1 (human) (UniProt P54762)
MAP3K5 (human) = MAP3K5 (human) (UniProt Q99683)
EPHA2 (human) = EPHA2 (human) (UniProt P29317)
PRKCI (human) = PRKCI (human) (UniProt P41743)
ACVR1 (human) = ACVR1 (human) (UniProt Q04771)
HIPK1 (human) = HIPK1 (human) (UniProt Q86Z02)
DDR2 (human) = DDR2 (human) (UniProt Q16832)
DDR2 (human), sequence (Q16832 whole entry, looked up): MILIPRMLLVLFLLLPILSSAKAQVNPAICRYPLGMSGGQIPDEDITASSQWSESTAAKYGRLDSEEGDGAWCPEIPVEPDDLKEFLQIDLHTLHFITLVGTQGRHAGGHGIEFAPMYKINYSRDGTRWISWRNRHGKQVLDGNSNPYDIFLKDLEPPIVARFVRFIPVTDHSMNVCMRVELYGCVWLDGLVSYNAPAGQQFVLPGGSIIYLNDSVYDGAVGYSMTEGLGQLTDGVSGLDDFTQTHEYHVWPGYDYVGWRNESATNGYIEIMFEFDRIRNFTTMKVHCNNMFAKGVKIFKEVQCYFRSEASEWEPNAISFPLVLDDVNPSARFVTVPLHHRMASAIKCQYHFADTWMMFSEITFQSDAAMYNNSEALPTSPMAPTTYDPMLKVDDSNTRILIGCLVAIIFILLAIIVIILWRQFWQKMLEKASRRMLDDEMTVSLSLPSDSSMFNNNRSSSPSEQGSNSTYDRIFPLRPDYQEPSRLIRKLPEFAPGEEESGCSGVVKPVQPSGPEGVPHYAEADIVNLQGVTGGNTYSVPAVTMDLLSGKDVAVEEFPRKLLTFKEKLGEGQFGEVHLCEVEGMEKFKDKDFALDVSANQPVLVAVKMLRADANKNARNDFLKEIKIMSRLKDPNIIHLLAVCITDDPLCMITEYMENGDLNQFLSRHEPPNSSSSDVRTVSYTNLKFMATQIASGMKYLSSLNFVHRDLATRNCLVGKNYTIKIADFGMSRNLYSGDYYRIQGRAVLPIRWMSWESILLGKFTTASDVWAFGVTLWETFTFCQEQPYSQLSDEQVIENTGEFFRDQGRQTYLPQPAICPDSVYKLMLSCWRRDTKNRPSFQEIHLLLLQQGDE

MAPK1 (human) = MAPK1 (human) (UniProt P28482)
STK25 (human) = STK25 (human) (UniProt O00506)
LTK (human) = LTK (human) (UniProt P29376)
LTK (human), sequence (P29376 whole entry, looked up): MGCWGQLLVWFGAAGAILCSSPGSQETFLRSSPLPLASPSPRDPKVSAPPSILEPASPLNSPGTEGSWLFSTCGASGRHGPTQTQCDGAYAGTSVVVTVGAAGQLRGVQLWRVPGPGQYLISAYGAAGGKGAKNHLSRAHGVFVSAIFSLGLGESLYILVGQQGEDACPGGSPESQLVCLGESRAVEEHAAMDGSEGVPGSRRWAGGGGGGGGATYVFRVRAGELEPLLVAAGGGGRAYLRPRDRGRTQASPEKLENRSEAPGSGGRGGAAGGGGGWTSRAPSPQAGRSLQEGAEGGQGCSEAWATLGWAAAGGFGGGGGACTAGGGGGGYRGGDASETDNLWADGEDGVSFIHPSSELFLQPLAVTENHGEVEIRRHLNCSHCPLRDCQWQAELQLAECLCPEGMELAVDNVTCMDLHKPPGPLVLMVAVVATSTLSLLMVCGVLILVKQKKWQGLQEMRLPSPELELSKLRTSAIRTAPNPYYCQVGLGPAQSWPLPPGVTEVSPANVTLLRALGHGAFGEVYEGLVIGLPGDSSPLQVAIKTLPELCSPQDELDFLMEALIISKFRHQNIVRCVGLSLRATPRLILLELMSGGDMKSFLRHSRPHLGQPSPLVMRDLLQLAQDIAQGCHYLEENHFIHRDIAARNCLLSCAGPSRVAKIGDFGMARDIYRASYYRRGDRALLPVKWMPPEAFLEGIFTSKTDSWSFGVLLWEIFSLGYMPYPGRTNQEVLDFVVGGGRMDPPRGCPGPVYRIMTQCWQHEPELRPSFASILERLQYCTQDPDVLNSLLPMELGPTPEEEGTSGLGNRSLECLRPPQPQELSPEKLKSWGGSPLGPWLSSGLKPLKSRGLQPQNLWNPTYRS

PRKCB1 (human) = PRKCB1 (human) (UniProt P05771)
MARK2 (human) = MARK2 (human) (UniProt Q7KZI7)
DAPK1 (human) = DAPK1 (human) (UniProt P53355)
EPHA3 (human) = EPHA3 (human) (UniProt P29320)
IRAK1 (human) = IRAK1 (human) (UniProt P51617)
NEK4 (human) = NEK4 (human) (UniProt P51957)
EPHA1 (human) = EPHA1 (human) (UniProt P21709)
PTK6 (human) = PTK6 (human) (UniProt Q13882)
MST1R (human) = MST1R (human) (UniProt Q04912)
MST1R (human), sequence (Q04912 whole entry, looked up): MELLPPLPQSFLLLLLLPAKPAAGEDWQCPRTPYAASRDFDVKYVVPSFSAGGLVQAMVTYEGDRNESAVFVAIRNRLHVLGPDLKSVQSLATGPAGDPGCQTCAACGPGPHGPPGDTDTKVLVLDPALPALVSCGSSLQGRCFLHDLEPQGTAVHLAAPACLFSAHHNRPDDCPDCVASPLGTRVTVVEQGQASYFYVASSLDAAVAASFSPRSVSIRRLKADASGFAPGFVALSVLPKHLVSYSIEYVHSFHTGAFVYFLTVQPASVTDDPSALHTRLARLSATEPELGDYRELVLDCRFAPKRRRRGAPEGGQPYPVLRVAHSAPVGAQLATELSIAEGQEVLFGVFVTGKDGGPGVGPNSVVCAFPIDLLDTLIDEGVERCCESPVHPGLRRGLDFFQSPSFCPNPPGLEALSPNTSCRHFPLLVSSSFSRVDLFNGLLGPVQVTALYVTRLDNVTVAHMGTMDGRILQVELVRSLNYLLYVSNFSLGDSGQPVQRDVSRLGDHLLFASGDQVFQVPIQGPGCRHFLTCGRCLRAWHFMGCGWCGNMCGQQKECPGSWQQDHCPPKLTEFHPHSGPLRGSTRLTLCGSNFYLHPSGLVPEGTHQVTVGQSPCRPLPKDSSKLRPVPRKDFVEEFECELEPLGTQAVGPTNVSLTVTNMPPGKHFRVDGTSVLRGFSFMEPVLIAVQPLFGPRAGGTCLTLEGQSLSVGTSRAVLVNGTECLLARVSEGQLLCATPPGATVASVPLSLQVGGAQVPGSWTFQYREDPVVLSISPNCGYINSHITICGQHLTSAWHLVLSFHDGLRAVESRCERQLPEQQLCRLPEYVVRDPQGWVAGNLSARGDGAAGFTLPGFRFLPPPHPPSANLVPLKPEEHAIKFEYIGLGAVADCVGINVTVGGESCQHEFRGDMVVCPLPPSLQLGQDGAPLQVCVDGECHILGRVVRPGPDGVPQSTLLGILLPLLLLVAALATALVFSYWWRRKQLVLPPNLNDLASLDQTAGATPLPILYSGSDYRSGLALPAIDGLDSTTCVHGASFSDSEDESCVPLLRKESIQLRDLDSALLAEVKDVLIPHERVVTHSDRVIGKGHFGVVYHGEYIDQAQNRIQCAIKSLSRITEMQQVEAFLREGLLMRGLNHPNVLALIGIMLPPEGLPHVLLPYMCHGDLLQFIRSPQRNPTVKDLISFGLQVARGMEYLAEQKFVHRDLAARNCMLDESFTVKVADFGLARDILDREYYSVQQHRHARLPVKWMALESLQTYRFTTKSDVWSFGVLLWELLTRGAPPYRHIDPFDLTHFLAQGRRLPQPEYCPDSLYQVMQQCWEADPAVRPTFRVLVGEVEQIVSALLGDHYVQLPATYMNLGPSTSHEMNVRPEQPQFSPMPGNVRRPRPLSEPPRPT

GRK6 (human) = GRK6 (human) (UniProt P43250)
CSNK2A1 (human) = CSNK2A1 (human) (UniProt P68400)
SYK (human) = SYK (human) (UniProt P43405)
PRKD2 (human) = PRKD2 (human) (UniProt Q9BZL6)
BRSK1 (human) = BRSK1 (human) (UniProt Q8TDC3)
NEK6 (human) = NEK6 (human) (UniProt Q9HC98)
NEK3 (human) = NEK3 (human) (UniProt P51956)
ULK2 (human) = ULK2 (human) (UniProt Q8IYT8)
MYO3B (human) = MYO3B (human) (UniProt Q8WXR4)
TAOK1 (human) = TAOK1 (human) (UniProt Q7L7X3)
NEK7 (human) = NEK7 (human) (UniProt Q8TDX7)
CSNK1G1 (human) = CSNK1G1 (human) (UniProt Q9HCP0)
RPS6KB1 (human) = RPS6KB1 (human) (UniProt P23443)
FER (human) = FER (human) (UniProt P16591)
CAMK1 (human) = CAMK1 (human) (UniProt Q14012)
CDK5 CDK5R1 p25 (human) = CDK5 CDK5R1 p25 (human) (UniProt Q00535+Q15078)
CHUK (human) = CHUK (human) (UniProt O15111)
CHUK (human), sequence (O15111 whole entry, looked up): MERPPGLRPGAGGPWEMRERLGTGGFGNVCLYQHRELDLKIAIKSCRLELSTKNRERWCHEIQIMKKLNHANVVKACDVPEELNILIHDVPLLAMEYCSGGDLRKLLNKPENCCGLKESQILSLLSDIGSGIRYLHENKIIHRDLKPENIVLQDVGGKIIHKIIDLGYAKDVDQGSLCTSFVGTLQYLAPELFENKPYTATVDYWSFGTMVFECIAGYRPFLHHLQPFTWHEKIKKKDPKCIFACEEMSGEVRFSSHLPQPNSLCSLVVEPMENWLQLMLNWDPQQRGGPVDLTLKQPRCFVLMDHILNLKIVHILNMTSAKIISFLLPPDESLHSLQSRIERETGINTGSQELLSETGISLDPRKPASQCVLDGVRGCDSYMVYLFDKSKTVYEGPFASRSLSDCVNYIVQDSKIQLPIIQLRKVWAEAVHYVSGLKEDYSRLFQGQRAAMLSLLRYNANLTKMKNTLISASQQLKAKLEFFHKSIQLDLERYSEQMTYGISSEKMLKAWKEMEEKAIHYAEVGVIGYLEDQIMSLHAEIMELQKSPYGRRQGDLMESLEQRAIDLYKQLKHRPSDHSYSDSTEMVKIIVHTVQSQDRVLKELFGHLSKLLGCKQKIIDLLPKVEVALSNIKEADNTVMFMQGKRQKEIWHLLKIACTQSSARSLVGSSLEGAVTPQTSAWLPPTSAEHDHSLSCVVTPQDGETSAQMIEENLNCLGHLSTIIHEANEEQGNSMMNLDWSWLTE

CAMK1G (human) = CAMK1G (human) (UniProt Q96NX5)

EPHA7 (human), sequence (Q15375 whole entry, looked up): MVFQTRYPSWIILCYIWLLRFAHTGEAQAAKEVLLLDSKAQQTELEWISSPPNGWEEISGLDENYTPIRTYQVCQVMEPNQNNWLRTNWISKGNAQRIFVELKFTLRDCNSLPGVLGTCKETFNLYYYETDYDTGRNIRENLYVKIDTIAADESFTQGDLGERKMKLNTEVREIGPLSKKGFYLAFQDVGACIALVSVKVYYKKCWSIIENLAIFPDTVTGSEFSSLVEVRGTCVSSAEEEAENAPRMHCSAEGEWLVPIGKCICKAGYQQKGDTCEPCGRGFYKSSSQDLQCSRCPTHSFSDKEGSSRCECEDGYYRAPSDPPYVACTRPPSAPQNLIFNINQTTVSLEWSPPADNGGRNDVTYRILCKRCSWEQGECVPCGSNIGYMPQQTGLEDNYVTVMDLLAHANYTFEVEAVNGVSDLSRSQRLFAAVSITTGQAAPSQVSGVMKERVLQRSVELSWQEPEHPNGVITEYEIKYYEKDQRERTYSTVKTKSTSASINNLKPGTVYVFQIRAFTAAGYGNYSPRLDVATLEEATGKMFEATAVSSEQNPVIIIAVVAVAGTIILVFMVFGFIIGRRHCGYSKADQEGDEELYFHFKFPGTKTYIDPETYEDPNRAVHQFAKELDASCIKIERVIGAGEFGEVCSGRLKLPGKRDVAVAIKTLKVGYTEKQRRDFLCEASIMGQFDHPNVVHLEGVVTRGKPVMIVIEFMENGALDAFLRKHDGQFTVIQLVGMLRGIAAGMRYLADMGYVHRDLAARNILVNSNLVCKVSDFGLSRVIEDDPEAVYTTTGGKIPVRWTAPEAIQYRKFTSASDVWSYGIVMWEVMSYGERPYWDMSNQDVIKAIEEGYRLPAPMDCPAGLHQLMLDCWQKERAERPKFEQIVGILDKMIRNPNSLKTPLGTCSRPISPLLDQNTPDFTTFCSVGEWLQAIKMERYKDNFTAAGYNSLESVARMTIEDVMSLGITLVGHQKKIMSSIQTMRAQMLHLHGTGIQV

SMILES: CCN(CC)CCNC(=O)c1c(C)[nH]c(/C=C2\C(=O)Nc3ccc(Cl)cc32)c1C
- residual activity (SRMS (human)): 102%
- residual activity (EPHA7 (human)): 67.1%
- residual activity (CAMK2D (human)): 7.25%
- residual activity (MAPK8 (human)): 97.2%
- residual activity (HIPK2 (human)): 20%
- residual activity (EPHB1 (human)): 60.8%
- residual activity (MAP3K5 (human)): 98.1%
- residual activity (EPHA2 (human)): 93.5%
- residual activity (PRKCI (human)): 91.9%
- residual activity (ACVR1 (human)): 108%
- residual activity (HIPK1 (human)): 96.9%
- residual activity (DDR2 (human)): 104%
- residual activity (MAPK1 (human)): 97.1%
- residual activity (STK25 (human)): 56.1%
- residual activity (LTK (human)): 11.6%
- residual activity (PRKCB1 (human)): 98.1%
- residual activity (MARK2 (human)): 9.74%
- residual activity (DAPK1 (human)): 47.7%
- residual activity (EPHA3 (human)): 92.5%
- residual activity (IRAK1 (human)): 14.1%
- residual activity (NEK4 (human)): 97%
- residual activity (EPHA1 (human)): 89.4%
- residual activity (PTK6 (human)): 51.3%
- residual activity (MST1R (human)): 96.7%
- residual activity (GRK6 (human)): 46.3%
- residual activity (CSNK2A1 (human)): 91.4%
- residual activity (SYK (human)): 59.2%
- residual activity (PRKD2 (human)): 11.9%
- residual activity (BRSK1 (human)): 36.5%
- residual activity (NEK6 (human)): 97.8%
- residual activity (NEK3 (human)): 94%
- residual activity (ULK2 (human)): 43%
- residual activity (MYO3B (human)): 41.3%
- residual activity (TAOK1 (human)): 65.8%
- residual activity (NEK7 (human)): 99.3%
- residual activity (CSNK1G1 (human)): 69.2%
- residual activity (RPS6KB1 (human)): 41.7%
- residual activity (FER (human)): 17.7%
- residual activity (CAMK1 (human)): 75.9%
- residual activity (CDK5 CDK5R1 p25 (human)): 95.1%
- residual activity (CHUK (human)): 102%
- residual activity (CAMK1G (human)): 49.5%

SMILES: O=C1NC(=O)/C(=C/c2ccc3c(c2)OC(F)(F)O3)S1
- residual activity (SRMS (human)): 103%
- residual activity (EPHA7 (human)): 98.7%
- residual activity (CAMK2D (human)): 97.1%
- residual activity (MAPK8 (human)): 95.1%
- residual activity (HIPK2 (human)): 104%
- residual activity (EPHB1 (human)): 95.6%
- residual activity (MAP3K5 (human)): 105%
- residual activity (EPHA2 (human)): 96.3%
- residual activity (PRKCI (human)): 95.9%
- residual activity (ACVR1 (human)): 97.4%
- residual activity (HIPK1 (human)): 95.9%
- residual activity (DDR2 (human)): 90.1%
- residual activity (MAPK1 (human)): 85.7%
- residual activity (STK25 (human)): 95.7%
- residual activity (LTK (human)): 95.5%
- residual activity (PRKCB1 (human)): 97.7%
- residual activity (MARK2 (human)): 96.8%
- residual activity (DAPK1 (human)): 120%
- residual activity (EPHA3 (human)): 97.6%
- residual activity (IRAK1 (human)): 84.2%
- residual activity (NEK4 (human)): 97.8%
- residual activity (EPHA1 (human)): 90.2%
- residual activity (PTK6 (human)): 94.8%
- residual activity (MST1R (human)): 100%
- residual activity (GRK6 (human)): 95.4%
- residual activity (CSNK2A1 (human)): 22.6%
- residual activity (SYK (human)): 95.3%
- residual activity (PRKD2 (human)): 91.5%
- residual activity (BRSK1 (human)): 88%
- residual activity (NEK6 (human)): 113%
- residual activity (NEK3 (human)): 92.6%
- residual activity (ULK2 (human)): 100%
- residual activity (MYO3B (human)): 87.9%
- residual activity (TAOK1 (human)): 90%
- residual activity (NEK7 (human)): 105%
- residual activity (CSNK1G1 (human)): 75.5%
- residual activity (RPS6KB1 (human)): 85.1%
- residual activity (FER (human)): 97.2%
- residual activity (CAMK1 (human)): 89.9%
- residual activity (CDK5 CDK5R1 p25 (human)): 89.7%
- residual activity (CHUK (human)): 88.4%
- residual activity (CAMK1G (human)): 107%

SMILES: N#C/C(=C(/N)Sc1ccc(N)cc1)c1ccccc1C(F)(F)F
- residual activity (SRMS (human)): 105%
- residual activity (EPHA7 (human)): 105%
- residual activity (CAMK2D (human)): 93.4%
- residual activity (MAPK8 (human)): 112%
- residual activity (HIPK2 (human)): 115%
- residual activity (EPHB1 (human)): 98.8%
- residual activity (MAP3K5 (human)): 108%
- residual activity (EPHA2 (human)): 104%
- residual activity (PRKCI (human)): 102%
- residual activity (ACVR1 (human)): 101%
- residual activity (HIPK1 (human)): 107%
- residual activity (DDR2 (human)): 102%
- residual activity (MAPK1 (human)): 86%
- residual activity (STK25 (human)): 114%
- residual activity (LTK (human)): 100%
- residual activity (PRKCB1 (human)): 93.1%
- residual activity (MARK2 (human)): 124%
- residual activity (DAPK1 (human)): 104%
- residual activity (EPHA3 (human)): 105%
- residual activity (IRAK1 (human)): 100%
- residual activity (NEK4 (human)): 95.9%
- residual activity (EPHA1 (human)): 100%
- residual activity (PTK6 (human)): 97.6%
- residual activity (MST1R (human)): 90.4%
- residual activity (GRK6 (human)): 100%
- residual activity (CSNK2A1 (human)): 97.9%
- residual activity (SYK (human)): 99.3%
- residual activity (PRKD2 (human)): 93.4%
- residual activity (BRSK1 (human)): 91.2%
- residual activity (NEK6 (human)): 101%
- residual activity (NEK3 (human)): 99.6%
- residual activity (ULK2 (human)): 115%
- residual activity (MYO3B (human)): 98.3%
- residual activity (TAOK1 (human)): 98.3%
- residual activity (NEK7 (human)): 93.9%
- residual activity (CSNK1G1 (human)): 89%
- residual activity (RPS6KB1 (human)): 102%
- residual activity (FER (human)): 105%
- residual activity (CAMK1 (human)): 91.6%
- residual activity (CDK5 CDK5R1 p25 (human)): 93.1%
- residual activity (CHUK (human)): 102%
- residual activity (CAMK1G (human)): 96.6%

SMILES: Cc1[nH]c(/C=C2\C(=O)Nc3ccc(S(=O)(=O)N(C)c4cccc(Cl)c4)cc32)c(C)c1C(=O)N1CCN(C)CC1
- residual activity (SRMS (human)): 104%
- residual activity (EPHA7 (human)): 85.8%
- residual activity (CAMK2D (human)): 68.4%
- residual activity (MAPK8 (human)): 86.9%
- residual activity (HIPK2 (human)): 105%
- residual activity (EPHB1 (human)): 84.5%
- residual activity (MAP3K5 (human)): 105%
- residual activity (EPHA2 (human)): 97.8%
- residual activity (PRKCI (human)): 98.7%
- residual activity (ACVR1 (human)): 96.8%
- residual activity (HIPK1 (human)): 104%
- residual activity (DDR2 (human)): 105%
- residual activity (MAPK1 (human)): 85.1%
- residual activity (STK25 (human)): 91%
- residual activity (LTK (human)): 45.5%
- residual activity (PRKCB1 (human)): 94%
- residual activity (MARK2 (human)): 44.1%
- residual activity (DAPK1 (human)): 106%
- residual activity (EPHA3 (human)): 103%
- residual activity (IRAK1 (human)): 57.7%
- residual activity (NEK4 (human)): 79.7%
- residual activity (EPHA1 (human)): 108%
- residual activity (PTK6 (human)): 91.3%
- residual activity (MST1R (human)): 103%
- residual activity (GRK6 (human)): 89.7%
- residual activity (CSNK2A1 (human)): 78.8%
- residual activity (SYK (human)): 96.7%
- residual activity (PRKD2 (human)): 58.3%
- residual activity (BRSK1 (human)): 101%
- residual activity (NEK6 (human)): 104%
- residual activity (NEK3 (human)): 98.7%
- residual activity (ULK2 (human)): 16.8%
- residual activity (MYO3B (human)): 72.5%
- residual activity (TAOK1 (human)): 41.9%
- residual activity (NEK7 (human)): 90.3%
- residual activity (CSNK1G1 (human)): 104%
- residual activity (RPS6KB1 (human)): 83.7%
- residual activity (FER (human)): 81%
- residual activity (CAMK1 (human)): 95.8%
- residual activity (CDK5 CDK5R1 p25 (human)): 82%
- residual activity (CHUK (human)): 100%
- residual activity (CAMK1G (human)): 92.5%
